Test results as given in the supplement of paper PMC10307832.

Legend:
Assay in all cases: relative viability (nuclei count vs DMSO), 5 days (fraction); higher = more cells survive
Doramapimod + Foretinib = compound: Cc1ccc(-n2nc(C(C)(C)C)cc2NC(=O)Nc2ccc(OCCN3CCOCC3)c3ccccc23)cc1 [Doramapimod] + COc1cc2c(Oc3ccc(NC(=O)C4(C(=O)Nc5ccc(F)cc5)CC4)cc3F)ccnc2cc1OCCCN1CCOCC1 [Foretinib] (partner 0.25 µM)
Outline: (§1)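 Values are medians from duplicate plates. Each reflects relative viability, defined as the nuclei count of treated wells over that of vehicle wells. Lung cancer cell lines in 1536-well plates were pin-tool dosed one day after seeding with one drug alone or with a fixed anchor-drug dose plus five library-drug doses (not always all listed) in √10 steps, then fixed, stained and imaged at 4× after 5 days.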

Doramapimod + Pictilisib = compound: Cc1ccc(-n2nc(C(C)(C)C)cc2NC(=O)Nc2ccc(OCCN3CCOCC3)c3ccccc23)cc1 [Doramapimod] + CS(=O)(=O)N1CCN(Cc2cc3nc(-c4cccc5[nH]ncc45)nc(N4CCOCC4)c3s2)CC1 [Pictilisib] (partner 1 µM)
Outline: as §1

RAF265 + Alpelisib = compound: Cn1c(Nc2ccc(C(F)(F)F)cc2)nc2cc(Oc3ccnc(-c4ncc(C(F)(F)F)[nH]4)c3)ccc21 [RAF265] + Cc1nc(NC(=O)N2CCC[C@H]2C(N)=O)sc1-c1ccnc(C(C)(C)C(F)(F)F)c1 [Alpelisib] (partner 2 µM)
Outline: as §1

IPA-3 + Pemetrexed = compound: C1=CC=C2C(=C1)C=CC(=C2SSC3=C(C=CC4=CC=CC=C43)O)O [IPA-3] + Nc1nc2[nH]cc(CCc3ccc(C(=O)N[C@@H](CCC(=O)O)C(=O)O)cc3)c2c(=O)[nH]1 [Pemetrexed] (partner 0.2 µM)
Outline: as §1

Cell Line | relative viability (Doramapimod + Foretinib; first compound 0.02 µM) | relative viability (Doramapimod + Foretinib; first compound 0.06325 µM) | relative viability (Doramapimod + Foretinib; first compound 0.2 µM) | relative viability (Doramapimod + Foretinib; first compound 0.6325 µM) | relative viability (Doramapimod + Foretinib; first compound 2 µM) | relative viability (Doramapimod + Pictilisib; first compound 0.02 µM) | relative viability (Doramapimod + Pictilisib; first compound 0.06325 µM) | relative viability (Doramapimod + Pictilisib; first compound 0.2 µM) | relative viability (Doramapimod + Pictilisib; first compound 0.6325 µM) | relative viability (Doramapimod + Pictilisib; first compound 2 µM) | relative viability (RAF265 + Alpelisib; first compound 0.01 µM) | relative viability (RAF265 + Alpelisib; first compound 0.03162 µM) | relative viability (RAF265 + Alpelisib; first compound 0.1 µM) | relative viability (RAF265 + Alpelisib; first compound 0.3162 µM) | relative viability (RAF265 + Alpelisib; first compound 1 µM) | relative viability (IPA-3 + Pemetrexed; first compound 0.2 µM) | relative viability (IPA-3 + Pemetrexed; first compound 0.6325 µM) | relative viability (IPA-3 + Pemetrexed; first compound 2 µM) | relative viability (IPA-3 + Pemetrexed; first compound 6.325 µM) | relative viability (IPA-3 + Pemetrexed; first compound 20 µM)
Calu-6 | 0.903 | 0.914 | 0.941 | 0.942 | 0.919 | 0.89 | 0.891 | 0.91 | 0.997 | 0.844 | 0.958 | 0.771 | 0.43 | 0.302 | 0.274 | – | – | – | – | –
ChaGo-K-1 | 0.922 | 0.907 | 0.892 | 0.949 | 0.831 | 0.805 | 0.888 | 0.96 | – | 0.688 | – | – | – | – | – | 0.257 | 0.264 | 0.272 | 0.281 | 0.263
EBC-1 | 0.117 | 0.102 | 0.0979 | 0.0935 | 0.1 | 0.355 | 0.279 | 0.363 | 0.355 | 0.247 | 0.907 | 0.794 | 0.495 | 0.403 | 0.541 | – | – | – | – | –
EKVX | 0.831 | 0.829 | 0.789 | 0.746 | 0.764 | 0.391 | 0.375 | 0.364 | 0.513 | 0.352 | 0.863 | 0.842 | 0.944 | 0.516 | 0.624 | 0.407 | 0.439 | 0.429 | 0.426 | 0.582
EMC-BAC-2 | 0.999 | 1.02 | 1.09 | 1.23 | 1 | 0.542 | 0.468 | 0.51 | 0.741 | 0.513 | 0.735 | 0.682 | 0.692 | 0.52 | 0.263 | 0.456 | 0.461 | 0.458 | 0.437 | 0.464
EPLC-272H | 0.776 | 0.658 | 0.788 | 0.934 | 0.57 | 0.344 | 0.418 | 0.377 | 0.296 | 0.275 | 0.847 | 0.792 | 0.801 | 0.478 | 0.367 | 0.415 | 0.309 | 0.337 | 0.355 | 0.371
H3255 | 0.844 | 0.883 | 0.945 | 0.637 | 0.726 | 0.485 | 0.495 | 0.466 | 0.545 | 0.414 | 0.706 | 0.836 | 0.691 | – | 0.455 | 0.572 | 0.551 | 0.561 | 0.527 | 0.548
HARA | 0.88 | 0.841 | 0.767 | – | 0.746 | 0.281 | 0.347 | 0.273 | 0.503 | 0.302 | 0.762 | 0.708 | 0.736 | 0.477 | 0.287 | 0.298 | 0.227 | 0.249 | 0.229 | 0.24
HCC-15 | 1.07 | 1.01 | 0.964 | – | 0.953 | 0.728 | 0.684 | 0.8 | 0.359 | 0.689 | 0.949 | 0.776 | 0.844 | 0.544 | 0.439 | 0.222 | 0.23 | 0.214 | 0.225 | 0.221
